Measured values published in article PMC3410885, “6-Arylpyrido[2,3-d]pyrimidines as Novel ATP-Competitive Inhibitors of Bacterial D-Alanine:D-Alanine Ligase” (PLoS ONE, 2012).
Values after ≈ are worked out from the molar mass of the structure shown.

What was measured:
[1] = tested on: E. coli strains (1411, AB734, SM1411, ES100); experiment: Antibacterial activity stated for the E. coli strains together; assay type: cell-based; details: Escherichia coli; read-out: MICs against all strains
Procedure: (§1) Selected DdlB inhibitors were tested for their antibacterial activity against two E. coli strains E. coli 1411 and E. coli AB734 (Table 2). […] Additionally, growth inhibition of efflux pump-deficient strains SM1411 (acrAB deficient derivative of 1411) and ES100 (tolC deficient derivative of AB734) was measured, and MICs were repeated for each strain in the presence of polymyxin B nonapeptide (PMBN) to assess the impact of outer-membrane permeability on antimicrobial activity.
(§2) Minimum inhibitory concentrations (MICs) were determined by broth microdilution against E. coli 1411, SM1411 (acrAB deficient derivative of 1411), AB734 and ES100 (tolC deficient derivative of AB734) according to CLSI guidelines. MICs were repeated for each strain in the presence of polymyxin B nonapeptide (4 μg/ml) to assess the impact of outer-membrane permeability on antimicrobial activity.

E. coli DdlB [2] = molecular target: T1, E. coli DdlB (Escherichia coli, UniProt P07862); experiment: Isothermal titration calorimetry of binding to DdlB; details: ITC, 37°C; for entropy contribution of binding ([drawing 6]) / standard Gibbs free energy of binding ([drawing 5]): calculated from the fitted parameters
T1 construct: polyhistidine (His) tag (N); made in house; host or cells: E. coli BL21(λDE3), vector pQE-30 UA (Qiagen)
Procedure: Two of the compounds, 14 and 33, were also tested by ITC to obtain thermodynamic parameters of the binding into DdlB active site. Heat changes upon binding of the ligand on the E. coli DdlB were measured directly, corrected for the heats of dilution, and the model function was fitted to the experimental data points (see the Experimental section).
The value of critical parameter for obtaining highly reliable thermodynamic data ( [drawing 10] ) was not optimal due to low inhibitors solubility and quite low binding constants. Nevertheless, the conclusions below can be drawn. Experiments for the two compounds result in similar binding constants (K b≈10^5 M^−1) (Table 1), but the driving forces for the binding differ (Figure 11). The binding of compound 14 to DdlB results from favourable enthalpy and entropy contributions. […] But still, compensation of the opposing effects at 33 results in similar [drawing 11] (and binding constant) as at 14, although there are less specific interactions between 33 and the protein as at 14.
The heat changes upon binding were measured using a VP-ITC microcalorimeter from MicroCal, LLC (Northampton, MA, USA). Purified DdlB stock solution in 20% glycerol was dialysed for 40 hours at 4°C (50 mM Hepes, pH = 8.0, 10 mM KCl, 10 mM (NH4)2SO4, 5 mM MgCl2, and 0.01% Triton X-114) prior to titration. The ligand solutions were prepared by adding a stock solution of 14 or 33 in DMSO to the dialysis buffer to obtain final 50 μM solution of the DdlB inhibitor in 5% DMSO. Successive aliquots (11–31 μl) of the degassed ligand solution were injected at 5–8 min intervals by a motor driven syringe (300 μl) into the degassed DdlB solution (approximately 2 μM, 5% DMSO) in the calorimeter cell (V = 1.386 ml) with constant stirring (300 rpm) at 37°C. At the end of experiment the final ratio of ligand:enzyme in the titration cell was about 6∶1. The titration data was further corrected for the heat changes observed in the control titration of ligand solution into the dialysis buffer, 5% DMSO, alone. The experimental data was analysed using the Origin 7.0 software provided by MicroCal and fitted by a home written program, based on the non-linear Levenberg–Marquardt χ^2 regression procedure, assuming a single binding site model (two parameter fit): [drawing 12] [drawing 13] where P, L, and PL represent DdlB, ligand, and DdlB-ligand complex, ΔH and [drawing 14] are the measured enthalpy upon aliquot addition and the standard enthalpy change of the binding reaction, [drawing 15] and [drawing 16] represent the total number of moles of ligand and DdlB-ligand complex in the titration cell, r is the bound ligand to total protein concentration,[P]tot, ratio and K b is the binding constant. A detailed explanation of the applied model equation is given in the Information S2.

E. coli DdlB [3] = molecular target: T1, E. coli DdlB; experiment: Colorimetric malachite green inhibition assay of DdlB; assay type: biochemical; details: for Ki: against ATP (50-500 μM), D-Ala 10 mM, competitive model; for mode of inhibition of DdlB: kinetic analysis at different inhibitor and ATP concentrations; for IC50: malachite green assay, 700 μM D-Ala, 500 μM ATP, 37°C, 20 min, read-out: inhibitory activity on DdlB: IC50
Procedure: All of the synthesized 6-arylpyrido[2,3-d]pyrimidines 11–36 were assayed for in vitro inhibitory activity on E. coli DdlB by detecting orthophosphate generated during the enzymatic reaction using a Malachite green assay.
Inhibition of DdlB was measured at different inhibitor and ATP concentrations in order to determine Ki values and the mode-of-action of both compounds.
The target compounds were tested for their ability to inhibit the D-Ala-adding activity of DdlB ligase with the colorimetric malachite green method in which orthophosphate generated during the reaction is measured. Each compound was tested in duplicate at 100, 250 or 500 μM in a mixture, final volume 50 μL, containing 50 mM Hepes (pH 8.0), 5 mM MgCl2, 10 mM (NH4)2SO4, 10 mM KCl, 700 μM D-Ala, 500 μM ATP, purified His-tagged DdlB (diluted in 50 mM Hepes (pH 7.2) and 1 mM DTT) and the test compound dissolved in DMSO. The final concentration of DMSO was 5% (v/v). The reaction mixture was incubated at 37°C for 20 min, then quenched with 100 μL of Biomol reagent and absorbance at 650 nm was measured after 5 min. To exclude possible promiscuous inhibitors, all compounds were tested in the presence of Triton-114 (0.005%). Residual activities were calculated relative to control assays without the compounds and with DMSO.

DdlB = molecular target: T2, DdlB (Escherichia coli, UniProt P07862); experiment: Surface plasmon resonance binding to immobilised DdlB; details: steady-state affinity model; 25°C; 50 mM Hepes, 150 mM NaCl, 5% DMSO; read-out: KD (SPR)
T2 construct: polyhistidine (His) tag (N); made in house; host or cells: E. coli BL21(λDE3), vector pQE-30 UA (Qiagen)
Procedure: The binding of the compounds 11, 13, 14, 24, 27, 33, and 35 to the target enzyme was confirmed using surface plasmon resonance (SPR) (Figure 10). Experiments were performed at conditions that enable long term stability of the enzyme. […] The enzyme was covalently attached to the surface of a sensor chip CM5 and compounds were titrated over the surface. The binding of all the compounds was characterised by fast association and dissociation rates. Equilibrium affinity constants, estimated from the steady-state binding levels are in agreement with enzymatic studies and ITC. In addition, the binding of other compounds was tested but insufficient solubility at higher concentrations of analytes in the running buffer precluded analysis.
Figure 10 SPR analysis of compounds binding to DdlB. Different concentrations of compounds were tested for the binding (left panels in all cases). The binding curves (right panels) were generated by ploting steady-state response levels, i.e. at the end of the association phase, vs concentration of the injected compound. For each compound 3–5 independent titrations were performed.
The binding constants were obtained by using a Biacore T100 (Biacore, GE Healthcare, USA). […] Two 1 min injections of 50 μg/ml DdlB diluted in 10 mM Na-acetate, pH 4.0 were applied on the second flow cell. The first flow cell was left unmodified and served as a control for non-specific binding of tested compounds. The remaining active groups on the surface of both flow cells were deactivated with a 7-min injection of ethanolamine. The level of immobilized enzyme was around 10000 response units.
Each analyte was titrated, with 3 or 4 repetitions, using different concentrations according to their solubility in running buffer (50 mM Hepes, 150 mM NaCl, 5% DMSO, pH 7.4), usually from 0,781 μM to 500 μM. One concentration was repeated at the end of the assay in each dilution series, in order to check the surface stability and repeatability. The association lasted 60 seconds at a flow-rate 30 μl/min. No regeneration was needed. All experiments were performed at 25°C. Sensorgrams were double referenced by subtracting the signal obtained in the empty flow cell and the injection of the buffer. The steady-state response levels were fitted using the Steady State Affinity model in Biacore T100 Evaluation software.

[4] = tested on: ES100 (tolC deficient derivative of AB734); experiment: MIC by broth microdilution, ES100; assay type: cell-based, E. coli; details: for MIC: Escherichia coli, read-out: MIC ES100 (tolC); for MIC ES100 +PMBN: with polymyxin B nonapeptide (4 μg/ml)
Procedure: as §1, §2

E. coli AB734 = experiment: MIC by broth microdilution, E. coli AB734; assay type: cell-based
Procedure: as §1, §2

E. coli 1411 = experiment: MIC by broth microdilution, E. coli 1411; assay type: cell-based
Procedure: as §1, §2

[5] = tested on: SM1411 (acrAB deficient derivative of 1411); experiment: MIC by broth microdilution, SM1411; assay type: cell-based, E. coli; details: for MIC: Escherichia coli, read-out: MIC SM1411 (acrAB); for MIC SM1411 +PMBN: with polymyxin B nonapeptide (4 μg/ml)
Procedure: as §1, §2

E. coli BC enzyme = details: read-out: IC50 for the E. coli BC enzyme; cited from earlier work
Ddl = molecular target: Ddl; set-up: method as in PMID 14479178; details: read-out: Ki of D-cycloserine on Ddl; cited from earlier work
[6] = with polymyxin B nonapeptide (4 μg/ml)

COc1cc(OC)cc(-c2cc3cnc(N)nc3nc2NC(=O)NC(C)(C)C)c1 [Compound 14, 1-(2-amino-6-(3,5-dimethoxyphenyl)pyrido[2,3-d]pyrimidin-7-yl)-3-tert-butylurea]
MIC [1]: > 256 mg/L | Kd (E. coli DdlB [2]): 10 µM | standard enthalpy of binding ([drawing 4]) (E. coli DdlB [2]): -17 kJ/mol | entropy contribution of binding ([drawing 6]) (E. coli DdlB [2]): 13 kJ/mol | standard Gibbs free energy of binding ([drawing 5]) (E. coli DdlB [2]): -29 kJ/mol | Ki (E. coli DdlB [3]): 31 ± 4 µM | mode of inhibition of DdlB (E. coli DdlB [3]): ATP competitive inhibitors | IC50 (E. coli DdlB [3]): 340 µM | fold greater DdlB inhibitory potency than corresponding diamine 13 (E. coli DdlB [3]; ratio of IC50 values, 14 against 13): 2.6 fold | Kd (DdlB): 19 ± 6.6 µM

Nc1ncc2cc(-c3c(F)cccc3F)c(N)nc2n1 [Compound 24, 6-(2,6-difluorophenyl)pyrido[2,3-d]pyrimidine-2,7-diamine]
MIC [4]: 16 mg/L (≈ 58.6 µM) | MIC ES100 +PMBN [4]: 8 µg/mL (≈ 29.3 µM) | MIC (E. coli AB734; Escherichia coli, AB734, without PMBN, read-out: MIC AB734): 64 mg/L (≈ 234 µM) | MIC AB734 +PMBN (E. coli AB734; [6]): 16 mg/L (≈ 58.6 µM) | MIC AB734 (E. coli AB734; without PMBN): 64 mg/L (≈ 234 µM) | IC50 (E. coli DdlB [3]): 1110 µM | MIC (E. coli 1411; Escherichia coli, 1411, read-out: MIC 1411): 64 mg/L (≈ 234 µM) | MIC 1411 +PMBN (E. coli 1411; [6]): 16 mg/L (≈ 58.6 µM) | MIC 1411 (E. coli 1411; without PMBN): 64 mg/L (≈ 234 µM) | melting point: > 300 °C | Kd (DdlB): 103 ± 7.8 µM | MIC [5]: 64 mg/L (≈ 234 µM) | MIC SM1411 +PMBN [5]: 8 µg/mL (≈ 29.3 µM)

Nc1ncc2cc(-c3c(Br)cccc3Br)c(N)nc2n1 [Compound 33, 6-(2,6-dibromophenyl)pyrido[2,3-d]pyrimidine-2,7-diamine]
MIC [4]: 0.5 mg/L (≈ 1.27 µM) | MIC ES100 +PMBN [4]: 0,125 μg/ml | Kd (E. coli DdlB [2]): 10 µM | standard enthalpy of binding ([drawing 4]) (E. coli DdlB [2]): 17 kJ/mol | entropy contribution of binding ([drawing 6]) (E. coli DdlB [2]): 46 kJ/mol | standard Gibbs free energy of binding ([drawing 5]) (E. coli DdlB [2]): -29 kJ/mol | Ki (E. coli DdlB [3]): 38 ± 5 µM | mode of inhibition of DdlB (E. coli DdlB [3]): ATP competitive inhibitors | IC50 (E. coli DdlB [3]): 453 µM | IC50 (E. coli BC enzyme): < 0.005 µM | Kd (DdlB): 161 ± 73.7 µM | MIC [5]: 1 mg/L (≈ 2.53 µM) | MIC SM1411 +PMBN [5]: 0,25 μg/ml

N[C@@H]1CON=C1O [D-cycloserine, D-4-amino-3-isoxazolidone, reference compound]
IC50 (E. coli DdlB [3]): 296 µM | Ki (Ddl): 27 µM

Nc1ncc2cc(-c3ccc4c(c3)OCO4)c(N)nc2n1 [Compound 35, 6-(benzo[d][1,3]dioxol-5-yl)pyrido[2,3-d]pyrimidine-2,7-diamine]
MIC [1]: > 256 mg/L | IC50 (E. coli DdlB [3]): 1110 µM | melting point: > 300 °C | Kd (DdlB): 104 ± 36.2 µM

CC(C)(C)NC(=O)Nc1nc2nc(N)ncc2cc1-c1c(Cl)cccc1Cl [Compound 27, 1-(2-amino-6-(2,6-dichlorophenyl)pyrido[2,3-d]pyrimidin-7-yl)-3-tert-butylurea]
MIC [1]: > 256 mg/L | IC50 (E. coli DdlB [3]): 655 µM | Kd (DdlB): 16.7 ± 6.5 µM

Nc1ncc2cc(-c3ccccc3)c(N)nc2n1 [Compound 11, 6-phenylpyrido[2,3-d]pyrimidine-2,7-diamine]
IC50 (E. coli DdlB [3]): 1140 µM | melting point: > 300 °C | Kd (DdlB): 150 ± 33.1 µM
